# From the supplement of paper PMC10307832
# Tests used:
# Experiment in all cases: relative viability (nuclei count vs DMSO), 5 days (fraction); higher = more cells survive
# [1] = test system: COR-L 105
# In short: (§1)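 Relative viability is defined as nuclei in treated wells over nuclei in vehicle wells. Duplicate plates were run and medians reported. Lung cancer cell lines in 1536-well plates were dosed by pin tool one day after seeding, with one drug or with a fixed anchor-drug dose plus five library-drug doses (not always all listed) in √10 steps, and nuclei were counted after 5 days.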
# [2] = test system: COR-L23
# In short: as §1
# [3] = test system: EKVX
# In short: as §1
# [4] = test system: HARA
# In short: as §1
# [5] = test system: HCC-15
# In short: as §1
# [6] = test system: HOP-62
# In short: as §1
# [7] = test system: NCI-H1355
# In short: as §1
# [8] = test system: NCI-H1395
# In short: as §1
# [9] = test system: NCI-H1734
# In short: as §1
# [10] = test system: NCI-H1755
# In short: as §1
# [11] = test system: NCI-H1793
# In short: as §1
# [12] = test system: NCI-H1993
# In short: as §1
# [13] = test system: NCI-H2009
# In short: as §1
# [14] = test system: NCI-H2170
# In short: as §1
# [15] = test system: NCI-H2228
# In short: as §1
# [16] = test system: NCI-H2342
# In short: as §1
# [17] = test system: NCI-H2347
# In short: as §1
# [18] = test system: NCI-H358
# In short: as §1
# [19] = test system: NCI-H647
# In short: as §1
# [20] = test system: NCI-H838
# In short: as §1
# [21] = test system: PC-14
# In short: as §1
# [22] = test system: SK-MES-1
# In short: as §1
# [23] = test system: UMC-11
# In short: as §1
smiles,measurement,setting,value
C=C1C(=O)O[C@@H](CCCCCCCC)[C@@H]1C(=O)O [C-75] + COc1cccc2cc(-c3nc([C@H]4CC[C@H](C(=O)O)CC4)n4ncnc(N)c34)[nH]c12 [OSI-027] (partner 0.5 µM),relative viability,[1]; first compound 0.08 µM,0.709
same,relative viability,[1]; first compound 0.253 µM,0.757
same,relative viability,[1]; first compound 0.8 µM,0.648
same,relative viability,[1]; first compound 2.53 µM,0.515
same,relative viability,[1]; first compound 8 µM,0.696
same,relative viability,[2]; first compound 0.08 µM,0.74
same,relative viability,[2]; first compound 0.253 µM,0.886
same,relative viability,[2]; first compound 0.8 µM,0.767
same,relative viability,[2]; first compound 2.53 µM,0.676
same,relative viability,[2]; first compound 8 µM,0.701
same,relative viability,[3]; first compound 0.08 µM,0.699
same,relative viability,[3]; first compound 0.253 µM,0.979
same,relative viability,[3]; first compound 0.8 µM,0.651
same,relative viability,[3]; first compound 8 µM,0.68
same,relative viability,[4]; first compound 0.08 µM,0.634
same,relative viability,[4]; first compound 0.253 µM,0.587
same,relative viability,[4]; first compound 0.8 µM,0.513
same,relative viability,[4]; first compound 2.53 µM,0.31
same,relative viability,[4]; first compound 8 µM,0.441
same,relative viability,[5]; first compound 0.08 µM,0.628
same,relative viability,[5]; first compound 0.253 µM,0.707
same,relative viability,[5]; first compound 0.8 µM,0.655
same,relative viability,[5]; first compound 2.53 µM,0.502
same,relative viability,[5]; first compound 8 µM,0.636
same,relative viability,[6]; first compound 0.08 µM,0.816
same,relative viability,[6]; first compound 0.253 µM,0.825
same,relative viability,[6]; first compound 0.8 µM,0.865
same,relative viability,[6]; first compound 2.53 µM,0.738
same,relative viability,[6]; first compound 8 µM,0.705
same,relative viability,[7]; first compound 0.08 µM,0.49
same,relative viability,[7]; first compound 0.253 µM,0.441
same,relative viability,[7]; first compound 0.8 µM,0.391
same,relative viability,[7]; first compound 2.53 µM,0.348
same,relative viability,[7]; first compound 8 µM,0.5
same,relative viability,[8]; first compound 0.08 µM,0.669
same,relative viability,[8]; first compound 0.253 µM,0.624
same,relative viability,[8]; first compound 0.8 µM,0.556
same,relative viability,[8]; first compound 2.53 µM,0.667
same,relative viability,[8]; first compound 8 µM,0.649
same,relative viability,[9]; first compound 0.08 µM,0.593
same,relative viability,[9]; first compound 0.253 µM,0.621
same,relative viability,[9]; first compound 0.8 µM,0.481
same,relative viability,[9]; first compound 2.53 µM,0.323
same,relative viability,[9]; first compound 8 µM,0.455
same,relative viability,[10]; first compound 0.08 µM,0.767
same,relative viability,[10]; first compound 0.253 µM,0.724
same,relative viability,[10]; first compound 0.8 µM,0.711
same,relative viability,[10]; first compound 2.53 µM,0.604
same,relative viability,[10]; first compound 8 µM,0.72
same,relative viability,[11]; first compound 0.08 µM,0.337
same,relative viability,[11]; first compound 0.253 µM,0.284
same,relative viability,[11]; first compound 0.8 µM,0.241
same,relative viability,[11]; first compound 2.53 µM,0.224
same,relative viability,[11]; first compound 8 µM,0.342
same,relative viability,[12]; first compound 0.08 µM,0.558
same,relative viability,[12]; first compound 0.253 µM,0.61
same,relative viability,[12]; first compound 0.8 µM,0.491
same,relative viability,[12]; first compound 2.53 µM,0.539
same,relative viability,[12]; first compound 8 µM,0.589
same,relative viability,[13]; first compound 0.08 µM,0.675
same,relative viability,[13]; first compound 0.253 µM,0.686
same,relative viability,[13]; first compound 0.8 µM,0.567
same,relative viability,[13]; first compound 2.53 µM,0.545
same,relative viability,[13]; first compound 8 µM,0.426
same,relative viability,[14]; first compound 0.08 µM,0.797
same,relative viability,[14]; first compound 0.253 µM,0.78
same,relative viability,[14]; first compound 0.8 µM,0.706
same,relative viability,[14]; first compound 2.53 µM,0.321
same,relative viability,[14]; first compound 8 µM,0.703
same,relative viability,[15]; first compound 0.08 µM,0.534
same,relative viability,[15]; first compound 0.253 µM,0.686
same,relative viability,[15]; first compound 0.8 µM,0.398
same,relative viability,[15]; first compound 2.53 µM,0.302
same,relative viability,[15]; first compound 8 µM,0.517
same,relative viability,[16]; first compound 0.08 µM,0.582
same,relative viability,[16]; first compound 0.253 µM,0.656
same,relative viability,[16]; first compound 0.8 µM,0.582
same,relative viability,[16]; first compound 2.53 µM,0.628
same,relative viability,[16]; first compound 8 µM,0.591
same,relative viability,[17]; first compound 0.08 µM,0.408
same,relative viability,[17]; first compound 0.253 µM,0.523
same,relative viability,[17]; first compound 0.8 µM,0.44
same,relative viability,[17]; first compound 8 µM,0.478
same,relative viability,[18]; first compound 0.08 µM,0.714
same,relative viability,[18]; first compound 0.253 µM,0.871
same,relative viability,[18]; first compound 0.8 µM,0.691
same,relative viability,[18]; first compound 2.53 µM,0.383
same,relative viability,[18]; first compound 8 µM,0.624
same,relative viability,[19]; first compound 0.08 µM,0.697
same,relative viability,[19]; first compound 0.253 µM,0.603
same,relative viability,[19]; first compound 0.8 µM,0.522
same,relative viability,[19]; first compound 2.53 µM,0.474
same,relative viability,[19]; first compound 8 µM,0.574
same,relative viability,[20]; first compound 0.08 µM,0.442
same,relative viability,[20]; first compound 0.8 µM,0.37
same,relative viability,[20]; first compound 2.53 µM,0.36
same,relative viability,[20]; first compound 8 µM,0.404
same,relative viability,[21]; first compound 0.08 µM,0.774
same,relative viability,[21]; first compound 0.253 µM,0.958
same,relative viability,[21]; first compound 0.8 µM,0.687
same,relative viability,[21]; first compound 2.53 µM,0.767
same,relative viability,[21]; first compound 8 µM,0.856
same,relative viability,[22]; first compound 0.08 µM,0.738
same,relative viability,[22]; first compound 0.253 µM,0.666
same,relative viability,[22]; first compound 0.8 µM,0.568
same,relative viability,[22]; first compound 2.53 µM,0.469
same,relative viability,[22]; first compound 8 µM,0.549
same,relative viability,[23]; first compound 0.08 µM,0.457
same,relative viability,[23]; first compound 0.253 µM,0.579
same,relative viability,[23]; first compound 0.8 µM,0.477
same,relative viability,[23]; first compound 2.53 µM,0.461
same,relative viability,[23]; first compound 8 µM,0.417
